PubChem BioAssay (NCI)
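Step 1: Grow cells in 96-well plates. Step 2: Expose to compound for 48 hours at 5 concentrations. Step 3: Interpolate endpoints linearly; if unreached, use highest concentration. GI50: concentration for 50% inhibition of growth. TGI denotes the concentration required for complete inhibition of growth.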

Columns and labels:
Assay in all cases: NCI-60 cell line screen, 48 h
HS 578T breast = tested on: HS 578T breast
SF-295 CNS = tested on: SF-295 CNS
RPMI-8226 leukemia = tested on: RPMI-8226 leukemia
COLO 205 colon = tested on: COLO 205 colon
HCC-2998 colon = tested on: HCC-2998 colon
A549 NSCLC = tested on: A549 NSCLC
A498 renal = tested on: A498 renal
UACC-62 melanoma = tested on: UACC-62 melanoma
T-47D breast = tested on: T-47D breast
786-0 renal = tested on: 786-0 renal
TK-10 renal = tested on: TK-10 renal
NCI/ADR-RES ovarian = tested on: NCI/ADR-RES ovarian
MDA-MB-435 = tested on: MDA-MB-435
HT29 colon = tested on: HT29 colon
M14 melanoma = tested on: M14 melanoma
NCI-H460 lung = tested on: NCI-H460 lung
PC-3 prostate = tested on: PC-3 prostate
SN12C renal = tested on: SN12C renal
SK-MEL-28 melanoma = tested on: SK-MEL-28 melanoma
ACHN renal = tested on: ACHN renal
OVCAR-4 ovarian = tested on: OVCAR-4 ovarian
SR leukemia = tested on: SR leukemia
SK-OV-3 ovarian = tested on: SK-OV-3 ovarian
K-562 leukemia = tested on: K-562 leukemia
MALME-3M melanoma = tested on: MALME-3M melanoma
UACC-257 melanoma = tested on: UACC-257 melanoma
SF-268 CNS = tested on: SF-268 CNS
SNB-19 CNS = tested on: SNB-19 CNS
KM12 colon = tested on: KM12 colon
CCRF-CEM leukemia = tested on: CCRF-CEM leukemia
CAKI-1 renal = tested on: CAKI-1 renal
SF-539 CNS = tested on: SF-539 CNS
HOP-92 NSCLC = tested on: HOP-92 NSCLC
SW-620 colon = tested on: SW-620 colon
IGROV1 ovarian = tested on: IGROV1 ovarian
NCI-H23 lung = tested on: NCI-H23 lung
OVCAR-3 ovarian = tested on: OVCAR-3 ovarian
MDA-MB-468 breast = tested on: MDA-MB-468 breast
HOP-62 NSCLC = tested on: HOP-62 NSCLC
DU-145 prostate = tested on: DU-145 prostate
OVCAR-8 ovarian = tested on: OVCAR-8 ovarian
HCT-15 colon = tested on: HCT-15 colon
MOLT-4 leukemia = tested on: MOLT-4 leukemia
MCF7 breast = tested on: MCF7 breast
SK-MEL-5 melanoma = tested on: SK-MEL-5 melanoma
BT-549 breast = tested on: BT-549 breast
EKVX NSCLC = tested on: EKVX NSCLC
HL-60(TB) leukemia = tested on: HL-60(TB) leukemia
NCI-H522 lung = tested on: NCI-H522 lung
OVCAR-5 ovarian = tested on: OVCAR-5 ovarian
HCT-116 colon = tested on: HCT-116 colon
LOX IMVI melanoma = tested on: LOX IMVI melanoma
NCI-H226 lung = tested on: NCI-H226 lung
RXF 393 renal = tested on: RXF 393 renal
U251 CNS = tested on: U251 CNS

N#CC1=C(c2cccs2)Nc2c(c(-c3ccccc3)nn2-c2ccccc2)C12C(=O)Nc1ccc(Br)cc12 (stereo not given)
GI50 (HS 578T breast): 12.7 µM
TGI (HS 578T breast): 40.1 µM
GI50 (SF-295 CNS): 12.5 µM
TGI (SF-295 CNS): 25.6 µM
GI50 (RPMI-8226 leukemia): 10.2 µM
TGI (RPMI-8226 leukemia): 32.9 µM
GI50 (COLO 205 colon): 16 µM
TGI (COLO 205 colon): 29.9 µM
GI50 (HCC-2998 colon): 13.9 µM
TGI (HCC-2998 colon): 27 µM
GI50 (A549 NSCLC): 10.2 µM
TGI (A549 NSCLC): 23 µM
GI50 (A498 renal): 16.3 µM
TGI (A498 renal): 30.7 µM
GI50 (UACC-62 melanoma): 11.4 µM
TGI (UACC-62 melanoma): 23.6 µM
GI50 (T-47D breast): 17.7 µM
TGI (T-47D breast): 45 µM
GI50 (786-0 renal): 15.7 µM
TGI (786-0 renal): 30.5 µM
GI50 (TK-10 renal): 12.9 µM
TGI (TK-10 renal): 36.7 µM
GI50 (NCI/ADR-RES ovarian): 13.3 µM
TGI (NCI/ADR-RES ovarian): 29.1 µM
GI50 (MDA-MB-435): 17 µM
TGI (MDA-MB-435): 33.7 µM
GI50 (HT29 colon): 15.2 µM
TGI (HT29 colon): 29.1 µM
GI50 (M14 melanoma): 14.4 µM
TGI (M14 melanoma): 27.7 µM
GI50 (NCI-H460 lung): 11.2 µM
TGI (NCI-H460 lung): 24.6 µM
GI50 (PC-3 prostate): 6.37 µM
TGI (PC-3 prostate): 22 µM
GI50 (SN12C renal): 13.7 µM
TGI (SN12C renal): 27.9 µM
GI50 (SK-MEL-28 melanoma): 15.1 µM
TGI (SK-MEL-28 melanoma): 28.4 µM
GI50 (ACHN renal): 11.9 µM
TGI (ACHN renal): 24.8 µM
GI50 (OVCAR-4 ovarian): 14.2 µM
TGI (OVCAR-4 ovarian): 34.1 µM
GI50 (SR leukemia): 7.93 µM
TGI (SR leukemia): 27.1 µM
GI50 (SK-OV-3 ovarian): 14.2 µM
TGI (SK-OV-3 ovarian): 28.6 µM
GI50 (K-562 leukemia): 7.53 µM
TGI (K-562 leukemia): 23.6 µM
GI50 (MALME-3M melanoma): 14.5 µM
TGI (MALME-3M melanoma): 27.8 µM
GI50 (UACC-257 melanoma): 15.6 µM
TGI (UACC-257 melanoma): 30.9 µM
GI50 (SF-268 CNS): 8.58 µM
TGI (SF-268 CNS): 37.8 µM
GI50 (SNB-19 CNS): 5.23 µM
TGI (SNB-19 CNS): 27.9 µM
GI50 (KM12 colon): 7.67 µM
TGI (KM12 colon): 20.5 µM
GI50 (CCRF-CEM leukemia): 7.51 µM
TGI (CCRF-CEM leukemia): 26.7 µM
GI50 (CAKI-1 renal): 16.2 µM
TGI (CAKI-1 renal): 37.5 µM
GI50 (SF-539 CNS): 15.2 µM
TGI (SF-539 CNS): 28.5 µM
GI50 (HOP-92 NSCLC): 3.4 µM
TGI (HOP-92 NSCLC): 15.4 µM
GI50 (SW-620 colon): 11.1 µM
TGI (SW-620 colon): 26.5 µM
GI50 (IGROV1 ovarian): 14.2 µM
TGI (IGROV1 ovarian): 29.8 µM
GI50 (NCI-H23 lung): 9.98 µM
TGI (NCI-H23 lung): 21.8 µM
GI50 (OVCAR-3 ovarian): 15 µM
TGI (OVCAR-3 ovarian): 29.4 µM
GI50 (MDA-MB-468 breast): 12.9 µM
TGI (MDA-MB-468 breast): 27 µM
GI50 (HOP-62 NSCLC): 15.4 µM
TGI (HOP-62 NSCLC): 29.6 µM
GI50 (DU-145 prostate): 20.7 µM
TGI (DU-145 prostate): 46.6 µM
GI50 (OVCAR-8 ovarian): 15.6 µM
TGI (OVCAR-8 ovarian): 31 µM
GI50 (HCT-15 colon): 5.34 µM
TGI (HCT-15 colon): 18.2 µM
GI50 (MOLT-4 leukemia): 7.92 µM
TGI (MOLT-4 leukemia): 24.1 µM
GI50 (MCF7 breast): 13.6 µM
TGI (MCF7 breast): 28.3 µM
GI50 (SK-MEL-5 melanoma): 16.6 µM
TGI (SK-MEL-5 melanoma): 30.5 µM
GI50 (BT-549 breast): 5.22 µM
TGI (BT-549 breast): 18.1 µM
GI50 (EKVX NSCLC): 11.1 µM
TGI (EKVX NSCLC): 27.4 µM
GI50 (HL-60(TB) leukemia): 8.84 µM
TGI (HL-60(TB) leukemia): 26.8 µM
GI50 (NCI-H522 lung): 4.52 µM
TGI (NCI-H522 lung): 17.1 µM
GI50 (OVCAR-5 ovarian): 16.5 µM
TGI (OVCAR-5 ovarian): 33.1 µM
GI50 (HCT-116 colon): 12.1 µM
TGI (HCT-116 colon): 24.7 µM
GI50 (LOX IMVI melanoma): 12.4 µM
TGI (LOX IMVI melanoma): 24.9 µM
GI50 (NCI-H226 lung): 15.4 µM
TGI (NCI-H226 lung): 31.2 µM
GI50 (RXF 393 renal): 10.2 µM
TGI (RXF 393 renal): 22.2 µM
GI50 (U251 CNS): 5.64 µM
TGI (U251 CNS): 18.4 µM
